pIC50: −log10 of the molar value.
Biological target: T1, human mTOR (His-tagged mTOR (1362C)) (Homo sapiens, UniProt P42345)
T1 construct: the 1362 to 2549 amino acid portion on the C terminus side of human mTOR; His tag (N); made in house
Test: mTOR kinase activity inhibition assay
Format: biochemical
Conditions: HTRF, read-out: IC50 against mTOR
Method in brief: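 Crude His-tagged mTOR (aa 1362–2549) from stable HEK293 cells, with 8 μg/ml biotinylated peptide in 50 mM HEPES pH 7.5, 20 mM MnCl2; compound diluted in 20 μM ATP solution, reaction 3 h at room temperature. Phospho-peptide detected by HTRF (anti-phospho-S6K Thr389 cryptate/streptavidin-XL665, overnight at 4°C), 665/620 nm ratio. IC50 derived from curve fit of % inhibition.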

T1 sequence (P42345 1362-2549): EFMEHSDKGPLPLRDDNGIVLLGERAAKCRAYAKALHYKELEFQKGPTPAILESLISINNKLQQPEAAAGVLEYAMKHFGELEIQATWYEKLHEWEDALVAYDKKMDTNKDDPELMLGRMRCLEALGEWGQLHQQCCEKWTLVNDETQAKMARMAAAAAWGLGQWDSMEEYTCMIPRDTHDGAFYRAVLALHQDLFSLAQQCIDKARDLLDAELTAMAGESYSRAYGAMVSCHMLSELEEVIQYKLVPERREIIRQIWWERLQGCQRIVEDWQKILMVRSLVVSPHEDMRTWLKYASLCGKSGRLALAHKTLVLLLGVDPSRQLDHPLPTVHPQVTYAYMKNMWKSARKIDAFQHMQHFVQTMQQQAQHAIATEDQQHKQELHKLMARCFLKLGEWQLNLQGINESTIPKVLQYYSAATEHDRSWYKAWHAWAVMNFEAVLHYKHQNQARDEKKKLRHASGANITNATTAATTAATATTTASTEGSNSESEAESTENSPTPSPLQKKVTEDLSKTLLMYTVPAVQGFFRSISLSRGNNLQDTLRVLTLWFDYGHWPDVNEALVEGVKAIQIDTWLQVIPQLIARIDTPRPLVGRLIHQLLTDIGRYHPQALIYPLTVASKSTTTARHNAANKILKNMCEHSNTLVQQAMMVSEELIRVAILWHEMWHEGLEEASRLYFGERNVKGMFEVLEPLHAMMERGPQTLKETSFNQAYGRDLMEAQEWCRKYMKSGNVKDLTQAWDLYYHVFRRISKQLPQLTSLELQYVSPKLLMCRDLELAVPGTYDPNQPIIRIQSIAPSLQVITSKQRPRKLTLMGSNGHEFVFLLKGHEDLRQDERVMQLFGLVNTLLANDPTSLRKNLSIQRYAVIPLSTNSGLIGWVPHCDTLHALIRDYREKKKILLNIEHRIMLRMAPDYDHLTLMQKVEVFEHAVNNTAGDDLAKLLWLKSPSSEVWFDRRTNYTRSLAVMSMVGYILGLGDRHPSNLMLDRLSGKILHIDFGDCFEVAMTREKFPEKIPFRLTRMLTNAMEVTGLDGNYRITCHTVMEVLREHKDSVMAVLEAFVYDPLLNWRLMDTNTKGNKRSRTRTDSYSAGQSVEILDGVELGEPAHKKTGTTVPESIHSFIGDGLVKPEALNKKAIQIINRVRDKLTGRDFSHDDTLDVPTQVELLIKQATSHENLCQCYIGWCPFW

SMILES	pIC50
CS(=O)(=O)C1CCN(c2nc3c(N4CCOCC4)nc(-c4cnc(N)nc4)nc3n2CC(F)(F)F)CC1 [Example 57, 5-{8-[4-(Methylsulfonyl)piperidin-1-yl]-6-morpholin-4-yl-9-(2,2,2-trifluoroethyl)-9H-purin-2-yl}pyrimidin-2-amine]	> 8.00
C[C@@H]1CN(c2nc3c(N4CCOCC4)nc(-c4cnc(N)nc4)nc3n2CC(F)(F)F)CCN1S(C)(=O)=O [Example 61, 5-{8-[(3R)-3-Methyl-4-(methylsulfonyl)piperazin-1-yl]-6-morpholin-4-yl-9-(2,2,2-trifluoroethyl)-9H-purin-2-yl}pyrimidin-2-amine]	7.52 to 8.00
C[C@H]1CN(c2nc3c(N4CCOCC4)nc(-c4cnc(N)nc4)nc3n2CC(F)(F)F)CCN1S(C)(=O)=O [Example 62, 5-{8-[(3S)-3-Methyl-4-(methylsulfonyl)piperazin-1-yl]-6-morpholin-4-yl-9-(2,2,2-trifluoroethyl)-9H-purin-2-yl}pyrimidin-2-amine]	> 8.00
CS(=O)(=O)N1CCN(c2nc3c(N4CCOCC4)nc(-c4cnc(N)nc4)nc3n2CC(F)F)CC1 [Example 64, 5-{9-(2,2-Difluoro-ethyl)-8-[4-(methylsulfonyl)piperazin-1-yl]-6-morpholin-4-yl-9H-purin-2-yl}pyrimidin-2-amine]	> 8.00
CC(=O)C(=O)N1CCN(c2nc3c(N4CCOCC4)nc(-c4cnc(N)nc4)nc3n2CC(F)(F)F)CC1 [Example 65, 1-{4-[2-(2-Aminopyrimidin-5-yl)-6-morpholin-4-yl-9-(2,2,2-trifluoroethyl)-9H-purin-8-yl]piperazin-1-yl}-1-oxoacetone]	> 8.00
CN(C)C(=O)C(=O)N1CCN(c2nc3c(N4CCOCC4)nc(-c4cnc(N)nc4)nc3n2CC(F)(F)F)CC1 [Example 66, 2-{4-[2-(2-Aminopyrimidin-5-yl)-6-morpholin-4-yl-9-(2,2,2-trifluoroethyl)-9H-purin-8-yl]piperazin-1-yl}-N,N-dimethyl-2-oxoacetamide]	> 8.00
Nc1ncc(-c2nc(N3CCOCC3)c3nc(N4CCN(C(=O)CO)CC4)n(CC(F)(F)F)c3n2)cn1 [Example 67, 2-{4-[2-(2-Aminopyrimidin-5-yl)-6-morpholin-4-yl-9-(2,2,2-trifluoroethyl)-9H-purin-8-yl]piperazin-1-yl}-2-oxoethanol]	> 8.00
C[C@H](O)C(=O)N1CCN(c2nc3c(N4CCOCC4)nc(-c4cnc(N)nc4)nc3n2CC(F)(F)F)CC1 [Example 68, (2S)-1-{4-[2-(2-Aminopyrimidin-5-yl)-6-morpholin-4-yl-9-(2,2,2-trifluoroethyl)-9H-purin-8-yl]piperazin-1-yl}-1-oxopropan-2-ol]	> 8.00
C[C@H](O)CC(=O)N1CCN(c2nc3c(N4CCOCC4)nc(-c4cnc(N)nc4)nc3n2CC(F)(F)F)CC1 [Example 69, (2S)-4-{4-[2-(2-Aminopyrimidin-5-yl)-6-morpholin-4-yl-9-(2,2,2-trifluoroethyl)-9H-purin-8-yl]piperazin-1-yl}-4-oxobutan-2-ol]	> 8.00
C[C@@H](O)CC(=O)N1CCN(c2nc3c(N4CCOCC4)nc(-c4cnc(N)nc4)nc3n2CC(F)(F)F)CC1 [Example 70, (2R)-4-{4-[2-(2-Aminopyrimidin-5-yl)-6-morpholin-4-yl-9-(2,2,2-trifluoroethyl)-9H-purin-8-yl]piperazin-1-yl}-4-oxobutan-2-ol]	> 8.00
Nc1ncc(-c2nc(N3CCOCC3)c3nc(N4CCN(C=O)CC4)n(CC(F)(F)F)c3n2)cn1 [Example 71, 4-[2-(2-Aminopyrimidin-5-yl)-6-morpholin-4-yl-9-(2,2,2-trifluoroethyl)-9H-purin-8-yl]piperazine-1-carboaldehyde]	> 8.00
CC[C@H]1CN(c2nc3c(N4CCOCC4)nc(-c4cnc(N)nc4)nc3n2CC(F)(F)F)CCN1S(C)(=O)=O [Example 76, 5-{8-[(3S)-3-Ethyl-4-(methylsulfonyl)piperazin-1-yl]-6-morpholin-4-yl-9-(2,2,2-trifluoroethyl)-9H-purin-2-yl}pyrimidin-2-amine]	> 8.00
